# Test results as given in patent publication US6977082B2, “High efficacy antibacterial compositions having enhanced esthetic and skin care properties” (The Dial Corporation, priority 2001, dated 2005).
# Assay: Repeat Application Soap Chamber (irritation) Test
# Settings: occlusive patches on volar forearm, six days, dilute solutions
# Experimental: Twelve male and female subjects between the ages of 18 and 65, who were in good health, were enrolled in the test. Dilute solutions of all test compositions were made each day of patching. Patches were totally occlusive chambers, 12 mm in diameter, applied to the volar forearm for a total of six days. Expert visual gradings, using a four-point scale for erythema, scaling, and fissuring were used as the objective measure of observation for this study. Grading was performed at baseline (i.e., when panelists were enrolled), 30 minutes after patch removal on days one to six, and at 24 hours on days one to six. A maximum for each tested characteristic was established as a “3” score.
structure (smiles),measurement,value
"CCCCCCCCCCCCOS(=O)(=O)[O-].[Na+] [SLS, sodium lauryl sulfate]","irritation potential, ranking from highest to lowest",SLS>HCPHW-E>HCPHW-H>HCPHW-G>HCPHW-F>Composition A>Negative Control
